Where a name gives a salt, the structure may show the parent alone. Some results are limits rather than exact numbers.

What is called IC50 is the concentration needed to halve the response being measured. Low values mean inhibition by little substance, high ones a need for much substance.

For assay [1], the target named is T1, HPK1 (Homo sapiens, UniProt Q92918).
T1 sequence (Q92918 1-346 limits assumed): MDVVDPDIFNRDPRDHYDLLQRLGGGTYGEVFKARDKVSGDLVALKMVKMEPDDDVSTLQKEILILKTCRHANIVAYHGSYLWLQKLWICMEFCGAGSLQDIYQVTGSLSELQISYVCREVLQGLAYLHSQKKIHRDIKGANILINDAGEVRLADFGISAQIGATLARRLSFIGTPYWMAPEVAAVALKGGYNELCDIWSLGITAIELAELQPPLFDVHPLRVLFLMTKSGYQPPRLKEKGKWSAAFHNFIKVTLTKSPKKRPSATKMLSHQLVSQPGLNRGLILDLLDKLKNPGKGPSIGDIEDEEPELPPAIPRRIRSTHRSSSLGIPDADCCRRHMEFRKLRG
The experiment in a line: HPK1 kinase activity assay (ADP-Glo). The conditions noted are these: HPK1 Kinase activity IC50 (nM), 1 nM HPK1, 10 μM ATP, 0.1 μg/μL MBP. On the technique in general: ADP-Glo first removes unused ATP, then detects ADP through luciferase.

The target of assay [2] is HPK1 (Homo sapiens, UniProt Q92918). Nature of the assay: SLP76 phosphorylation assay (intracellular HPK1 inhibitory activity, p-SLP76 Ser376 sandwich ELISA). The conditions noted are these: p-SLP76 IC50(nM), Jurkat, Clone E6-1 cells; 1 h compound pre-incubation, anti-CD3 beads stimulation 20 min; SLP76 phosphorylation at S376. (In an ELISA, binding on a coated surface is turned into a signal by an enzyme label.)
Target sequence in this assay (Q92918 whole entry): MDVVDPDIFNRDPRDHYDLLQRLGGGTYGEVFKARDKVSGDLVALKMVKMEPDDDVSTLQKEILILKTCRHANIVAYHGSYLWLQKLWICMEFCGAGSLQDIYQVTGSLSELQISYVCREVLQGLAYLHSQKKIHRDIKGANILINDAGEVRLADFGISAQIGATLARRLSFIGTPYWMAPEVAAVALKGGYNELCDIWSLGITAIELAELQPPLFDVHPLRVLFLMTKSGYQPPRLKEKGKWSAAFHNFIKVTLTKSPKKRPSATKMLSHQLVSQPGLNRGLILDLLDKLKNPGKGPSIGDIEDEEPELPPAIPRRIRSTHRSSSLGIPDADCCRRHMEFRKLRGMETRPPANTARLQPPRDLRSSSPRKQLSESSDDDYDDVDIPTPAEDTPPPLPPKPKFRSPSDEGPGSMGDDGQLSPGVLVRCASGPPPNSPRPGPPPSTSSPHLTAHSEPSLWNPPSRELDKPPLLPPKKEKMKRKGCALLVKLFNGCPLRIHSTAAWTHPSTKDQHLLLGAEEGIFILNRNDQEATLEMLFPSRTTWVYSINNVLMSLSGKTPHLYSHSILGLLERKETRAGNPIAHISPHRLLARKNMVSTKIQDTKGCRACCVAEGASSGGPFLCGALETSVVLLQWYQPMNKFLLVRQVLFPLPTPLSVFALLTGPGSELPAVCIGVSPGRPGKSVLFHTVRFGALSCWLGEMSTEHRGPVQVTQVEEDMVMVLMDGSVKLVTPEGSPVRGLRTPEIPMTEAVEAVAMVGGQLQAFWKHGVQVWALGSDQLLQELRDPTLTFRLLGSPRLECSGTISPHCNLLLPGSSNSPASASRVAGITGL
Method: Intracellular HPK1 inhibitory activity was tested by the detection of SLP76 phosphorylation at S376.
Preparation of 1000× drug stock plate: a 1000× compound stock plate was prepared. […] The compound stock plate was sealed with a sealing film and stored in a −20° C. refrigerator for later use.
Preparation of Beads wash buffer: 0.1 mL FBS and 0.4 mL 0.5 M EDTA (with a final concentration of 2 mM) were added to 100 mL PBS and stored in a 4° C. refrigerator for later use.
100× Protease Inhibitor Cocktail in 1/20 total volume was added and stored on wet ice for later use. The buffer was ready to use.
Cell inoculation and dosing: the 1000× drug stock plate was taken and melted at room temperature in the dark. […] Jurkat cells in the logarithmic growth phase were selected and collected. […] The cells were inoculated into a 96-well plate (the volume was 90 μL per well), and a blank control well (without cells inoculation, and in which 110 μL of medium was added) was set. 10 μL of a drug-containing culture medium (10×) was transferred from the 10× drug intermediate plate into the 96-well cell plate (with a final concentration of 0.1% DMSO), and set a DMSO control group (in which 0.1% DMSO was added to the treated cells), a stimulated control group (in which 10 μL of culture medium was added to treat cells) and an unstimulated group (in which 10 μL of culture medium was added to treat cells). The wells were duplicated, gently patted, mixed, and then placed into a 5% CO2 incubator at 37° C. for 1 h.
Anti-CD3 beads stimulation: Dynabeads anti-human CD3 was taken, shaken, and mixed for 60 s. The required volume of beads was pipetted, and an equal volume or at least 1 mL of washing solution was added to wash once. Fresh complete medium was then added to resuspend and adjust the density of the beads to 4×10^7/mL, and the beads were placed on ice for later use. At the end of drug pre-incubation, the cell culture plate was taken out. 10 μL Dynabeads anti-human CD3 was added to each well to treat the cells, and 10 μL the culture medium was added to the unstimulated group. The cell culture plate was shaken to mix well at 2500 rpm for 10 s, and then placed into a 5% CO2 incubator at 37° C. and continued to culture for 20 min.
Detection of p-SLP76 protein level. PathScan Phospho-SLP-76 (Ser376) Sandwich ELISA Kit was applied to detect p-SLP76 protein level. At the end of the Anti-CD3 beads stimulation, the cell culture plate was removed from the incubator. […] After lysis, the cell culture plate was centrifuged at 4° C., 400×g for 5 min. 25 μL of sample and 75 μL of sample diluent were added to each well, and the plate was placed in a 5% CO2 incubator at 37° C. for 2 h. The subsequent detection steps were carried out following the kit instructions, and the absorbance (OD value) of each well was read at 450 nm by a microplate reader.

Take `c1cncc(-c2c[nH]c3ncc(-c4cc5c(c([C@@H]6CCCN6)c4)COCC5)cc23)c1` [Compound Z199, (S)-3-(pyridin-3-yl)-5-(8-(pyrrolidin-2-yl)isochroman-6-yl)-1H-pyrrolo[2,3-b]pyridine]: the values for the IC50 in assay [1] and in assay [2] were 0.32 nM and 117 nM, respectively. `Cc1c[nH]c2ncc(-c3cc4c(c(CNCC5CC5)c3)COCC4)cc12` [Compound Z112, 1-cyclopropyl-N-((6-(3-methyl-11H-pyrrolo[2,3-b]pyridin-5-yl)isochroman-8-yl)methyl)methanamine]: the IC50 in assay [1] worked out at 3.55 nM; in assay [2], 305 nM. For `Cc1cc(N2CCc3cc(-c4cnc5[nH]cc(C)c5c4)cc([C@@H]4CCCN4)c3C2)ccn1` [Compound Z320, (S)-6-(3-methyl-1H-pyrrolo[2,3-b]pyridin-5-yl)-2-(2-methylpyridin-4-yl)-8-(pyrrolidin-2-yl)-1,2,3,4-tetrahydroisoquinoline formate], in that order: 0.73 nM and 121 nM.

For the compound `Nc1ncc(-c2cc3c(c(C4CCCN4)c2)COCC3)cc1-c1cn[nH]c1` (stereo not drawn) [Compound Z93, 3-(1H-pyrazol-4-yl)-5-(8-(pyrrolidin-2-yl)isochroman-6-yl)pyridin-2-amine formate], the IC50 in assay [1] stood at 1.62 nM; in assay [2], 439 nM.

Regarding `CC(C#N)c1c[nH]c2ncc(-c3cc4c(c([C@@H]5CCCN5)c3)COCC4)cc12` (stereo partly drawn) [Compound Z104, 2-(5-(8-((S)-pyrrolidin-2-yl)isochroman-6-yl)-1H-pyrrolo[2,3-b]pyridin-3-yl)propanenitrile], the IC50 in assay [1] is 0.29 nM; in assay [2], 77 nM. As for `Cc1c[nH]c2ncc(-c3cc4c(c([C@@H]5CCCN5)c3)CN(C(=O)CC3CCOCC3)CC4)cc12` [Compound Z218, (S)-1-(6-(3-methyl-1H-pyrrolo[2,3-b]pyridin-5-yl)-8-(pyrrolidin-2-yl)-3,4-dihydroisoquinolin-2(1H)-yl)-2-(tetrahydro-2H-pyran-4-yl)ethanone], the IC50 in assay [1] is 0.81 nM; in assay [2] it was 367 nM. With `CC(C)c1c[nH]c2ncc(-c3cc([C@H]4CCCN4)c4cnccc4c3)cc12` (single isomer, unassigned) [Compound Z95-1], the IC50 in assay [1] came out at 18.4 nM. Take `Cc1c[nH]c2ncc(-c3cc4c(c([C@@H]5CCCN5)c3)CN(c3ccccn3)CC4)cc12` [Compound Z128, (S)-6-(3-methyl-1H-pyrrolo[2,3-b]pyridin-5-yl)-2-(pyridin-2-yl)-8-(pyrrolidin-2-yl)-1,2,3,4-tetrahydroisoquinoline]: the IC50 in assay [1] worked out at 168 nM. The same measure, in the same setting: the value for `Cc1c[nH]c2ncc(-c3cc4c(c([C@@H]5COCCN5)c3)CN(C(=O)[C@](C)(O)C(F)(F)F)CC4)cc12` (single isomer, unassigned) [Compound Z309-1] was 0.58 nM; that for `Nc1ncc(-c2cc3c(c([C@H]4CCCN4)c2)COCC3)cc1-c1cn[nH]c1` (single isomer, unassigned) [Compound Z93-1] was 163 nM; that for `N#CCc1c[nH]c2ncc(-c3cc4c(c([C@H]5CCCN5)c3)COCC4)cc12` (single isomer, unassigned) [Compound Z101-1] was 42.7 nM. Still for that read-out and setting: the value for `Cc1c[nH]c2ncc(-c3cc4c(c(CN5CCOCC5)c3)COCC4)cc12` [Compound Z115, 4-((6-(3-methyl-1H-pyrrolo[2,3-b]pyridin-5-yl)isochroman-8-yl)methyl)morpholine] was 257 nM. Consider `Cc1c[nH]c2ncc(-c3cc4c(c([C@@H]5CCCN5)c3)CN(C(=O)N3C5CCC3COC5)CC4)cc12` [Compound Z388, (3-oxa-8-azabicyclo[3.2.1]octan-8-yl)(6-(3-methyl-1H-pyrrolo[2,3-b]pyridin-5-yl)-8-((S)-pyrrolidin-2-yl)-3,4-dihydroisoquinolin-2(1H)-yl)methanone], for which the IC50 in assay [2] is 43.1 nM.

In the case of `Cc1c[nH]c2ncc(-c3cc4c(c([C@@H]5CCCN5)c3)CN(C(=O)c3cnn(CCO)c3)CC4)cc12` [Compound Z281, (S)-(1-(2-hydroxyethyl)-1H-pyrazol-4-yl)(6-(3-methyl-1H-pyrrolo[2,3-b]pyridin-5-yl)-8-(pyrrolidin-2-yl)-3,4-dihydroisoquinolin-2(1H)-yl)methanone], in assay [2], inhibition was half-maximal at 2030 nM (IC50). `CNC(c1ccccc1)c1cc(-c2cnc3[nH]cc(C)c3c2)cc2c1COCC2` (single isomer, unassigned) [Compound Z234-1] had an IC50 in assay [1] of 154 nM. The same measure, in the same setting: to `CC(=O)N1CCc2cc(-c3cnc4[nH]cc(C)c4c3)cc([C@H]3COCCN3)c2C1` (single isomer, unassigned) [Compound Z119-2] belongs 90 nM. In assay [2], `Nc1ncc(-c2cc3c(c([C@@H]4CCCN4)c2)COCC3)cc1-c1nncs1` [Compound Z239, 5-[8-[(S)-pyrrolidin-2-yl]isochroman-6-yl]-3-(1,3,4-thiadiazol-2-yl)pyridin-2-amine] displayed an IC50 of 239 nM.

On to `CC(=O)N1CCc2cc(-c3cnc4[nH]cc(C)c4c3)cc([C@H]3CCCN3)c2C1` (single isomer, unassigned) [Compound Z98-1], for which, in assay [1], half-maximal inhibition (IC50) required 49.4 nM.

Compound `Cc1c[nH]c2ncc(-c3cc4c(c([C@H]5CCCN5)c3)COCC4)cc12` (single isomer, unassigned) [Compound Z97-1] showed an IC50 in assay [1] of 120 nM. Still for that read-out and setting: to `Cc1c[nH]c2ncc(-c3cc4c(c(N5CCC[C@H]5CO)c3)COCC4)cc12` [Compound Z116-2, (S)-(1-(6-(3-methyl-1H-pyrrolo[2,3-b]pyridin-5-yl)isochroman-8-yl)pyrrolidin-2-yl)methanol] belongs above 1000 nM. `Cc1c[nH]c2ncc(-c3cc4c(c([C@@H]5CCCN5)c3)CN(C(=O)Nc3cn[nH]c3)C4)cc12` [Compound Z385]: the IC50 in assay [2] stood at 3.3 nM. The same measure, in the same setting: to `Cc1c[nH]c2ncc(-c3cc4c(c(C5CC6(CC6)CN5)c3)COCC4)cc12` (stereo not drawn) [Compound Z240-1, 5-(8-(5-azaspiro[2.4]heptan-6-yl)isochroman-6-yl)-3-methyl-1H-pyrrolo[2,3-b]pyridine] belongs 770 nM. `CNC(c1ccccc1)c1cc(-c2cnc3[nH]cc(C)c3c2)cc2c1COCC2` (single isomer, unassigned) [Compound Z234-2]: in assay [1], the IC50 is above 1000 nM. For the compound `Cc1cn(C2CC2)nc1C(=O)N1CCc2cc(-c3cnc4[nH]cc(C)c4c3)cc([C@@H]3CCCN3)c2C1` [Compound Z342, (S)-(1-cyclopropyl-4-methyl-1H-pyrazol-3-yl)-[6-(3-methyl-1H-pyrrolo[2,3-b]pyridin-5-yl)-8-[pyrrolidin-2-yl]-3,4-dihydro-2(1H)-isoquinolin-yl]methanone], it took 271 nM to reach half-maximal inhibition in assay [2] (IC50).

On to `Cc1cn(C2CC2)nc1C(=O)N1CCc2cc(-c3cnc4[nH]cc(C)c4c3)cc([C@@H]3CCCN3)c2C1` [Compound Z347, (S)-(1-cyclopropyl-4-methyl-1H-pyrazol-3-yl)-[6-(3-methyl-1H-pyrrolo[2,3-b]pyridin-5-yl)-8-[pyrrolidin-2-yl]-3,4-dihydro-1H-isoquinolin-2-yl]methanone], for which the IC50 in assay [2] came out at 319 nM. In turn, `Cc1c[nH]c2ncc(-c3cc4c(c([C@@H]5CC6(CC6)CN5)c3)COCC4)cc12` [Compound Z240] had an IC50 in assay [1] of 2.28 nM. Take `Cc1c[nH]c2ncc(-c3cc4c(c(N5CCC[C@@H]5CO)c3)COCC4)cc12` [Compound Z116-1, (R)-(1-(6-(3-methyl-1H-pyrrolo[2,3-b]pyridin-5-yl)isochroman-8-yl)pyrrolidin-2-yl)methanol]: the IC50 in assay [1] came out at 843 nM.

(Values after US20240182465A1 (GENFLEET THERAPEUTICS (SHANGHAI) INC., priority 2021, published 2024).)
